For 16 molecules, T/C results are on record in PubChem BioAssay AID256 (DTP/NCI, 2004).

This experiment has as its system CD2F1 mice, L1210 leukemia ip, survival T/C. Put plainly: NCI In Vivo Anticancer Drug Screen. Data for tumor model L1210 Leukemia (intraperitoneal) in CD2F1 (CDF1) mice. Particulars: higher = longer survival. The procedure, abridged: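 Tumor-bearing mice (transplanted tumor) were split into treated and vehicle control groups, and the measured endpoint of each treated group was divided by that of its vehicle controls.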

[1] abbreviates: endpoint: median survival time, dose: 25.0 mg/kg/injection, schedule: Q01DX009 (ip), vehicle: Klucel (hydroxypropylcellulose) (HPC).
Setting [2] is: endpoint: median survival time, dose: 50.0 mg/kg/injection, schedule: Q01DX009 (ip), vehicle: Klucel (hydroxypropylcellulose) (HPC).
Where [3] appears, read: endpoint: median survival time, dose: 100.0 mg/kg/injection, schedule: Q01DX009 (ip), vehicle: Klucel (hydroxypropylcellulose) (HPC).
Where [4] appears, read: endpoint: median survival time, dose: 200.0 mg/kg/injection, schedule: Q01DX009 (ip), vehicle: Klucel (hydroxypropylcellulose) (HPC).
Where [5] appears, read: endpoint: mean survival time, dose: 100.0 mg/kg/injection, schedule: Q01DX009 (ip), vehicle: saline with Tween-80.
[6] abbreviates: endpoint: mean survival time, dose: 200.0 mg/kg/injection, schedule: Q01DX009 (ip), vehicle: saline with Tween-80.
[7] abbreviates: endpoint: mean survival time, dose: 100.0 mg/kg/injection, schedule: Q04DX003 (ip), vehicle: saline with Tween-80.
[8] abbreviates: endpoint: mean survival time, dose: 200.0 mg/kg/injection, schedule: Q04DX003 (ip), vehicle: saline with Tween-80.

Values joined by “and” are separate entries in the source; they are usually repeats but may differ in a detail not shown here. Equal values may be shown once. Toxic doses and inconclusive results are not listed.

Consider `COC1=C(NC(C)=O)C(=O)c2nc(-c3nc(C(=O)O)c(C)c(-c4ccc(OC)c(OC)c4O)c3N)ccc2C1=O`, for which the T/C (endpoint: median survival time, dose: 6.25 mg/kg/injection, schedule: Q01DX009 (ip), vehicle: Klucel (hydroxypropylcellulose) (HPC)) is 106 % of control; the T/C (endpoint: median survival time, dose: 12.5 mg/kg/injection, schedule: Q01DX009 (ip), vehicle: Klucel (hydroxypropylcellulose) (HPC)) is 108 % of control; the T/C under setting [1] is 104 % of control; the T/C under setting [2] is 107 % of control; the T/C under setting [3] is 109 % of control; the T/C under setting [4] is 109 % of control.
`O=C1NC(=O)C(=C/C=C/c2ccccc2)C(=O)N1`: the T/C (endpoint: mean survival time, dose: 12.5 mg/kg/injection, schedule: Q01DX009 (ip), vehicle: saline with Tween-80) was 97 % of control; the T/C (endpoint: mean survival time, dose: 25.0 mg/kg/injection, schedule: Q01DX009 (ip), vehicle: saline with Tween-80) was 94 % of control; the T/C (endpoint: mean survival time, dose: 50.0 mg/kg/injection, schedule: Q01DX009 (ip), vehicle: saline with Tween-80) was 91 % of control and 103 % of control.
Take `O=C(CNC(=O)Nc1cccc([N+](=O)[O-])c1)NNC(=O)Nc1ccccc1F`: the T/C is 88 % of control under setting [5] and 88 % of control under setting [6].
For the molecule `CN(C)C(C)(C)CC(C)(C)C`, the T/C under setting [7] is 96 % of control.
For `O=C1CN(CO)C(=O)N1CO`, the T/C is 110 % of control under setting [1]; 110 % of control under setting [2]; 116 % of control under setting [3]; 112 % of control under setting [4]; 96 % of control (endpoint: median survival time, dose: 400.0 mg/kg/injection, schedule: Q01DX009 (ip), vehicle: Klucel (hydroxypropylcellulose) (HPC)).
In the case of `Cc1ccc(-c2nc(SCc3ccccc3)[nH]c(=O)c2CCO)cc1`, the T/C (endpoint: mean survival time, dose: 100.0 mg/kg/injection, schedule: Q04DX003 (ip), vehicle: Klucel (hydroxypropylcellulose) (HPC)) is 93 % of control; the T/C (endpoint: mean survival time, dose: 200.0 mg/kg/injection, schedule: Q04DX003 (ip), vehicle: Klucel (hydroxypropylcellulose) (HPC)) was 96 % of control; the T/C (endpoint: mean survival time, dose: 400.0 mg/kg/injection, schedule: Q04DX003 (ip), vehicle: Klucel (hydroxypropylcellulose) (HPC)) was 91 % of control.
On to `O=[N+]([O-])c1ccc(COc2ccc(Cl)cc2)cc1`, for which the T/C runs as follows: under setting [7], 92 % of control; under setting [8], 103 % of control; (endpoint: mean survival time, dose: 400.0 mg/kg/injection, schedule: Q04DX003 (ip), vehicle: saline with Tween-80) 94 % of control.
For the molecule `c1ccc(OCCOc2ccccc2)cc1`, the T/C was 98 % of control (endpoint: mean survival time, dose: 50.0 mg/kg/injection, schedule: Q04DX003 (ip), vehicle: saline with Tween-80); 89 % of control under setting [7]; 91 % of control under setting [8].
Take `c1ccc2c(c1)OB(C1CCCC1)O2`: the T/C (endpoint: mean survival time, dose: 100.0 mg/kg/injection, schedule: Q01DX009 (ip), vehicle: other) was 93 % of control; the T/C (endpoint: mean survival time, dose: 200.0 mg/kg/injection, schedule: Q01DX009 (ip), vehicle: other) is 105 % of control; the T/C (endpoint: mean survival time, dose: 400.0 mg/kg/injection, schedule: Q01DX009 (ip), vehicle: other) was 109 % of control.
Take `O=[N+]([O-])/C=C/c1ccccc1`: the T/C runs as follows: (endpoint: mean survival time, dose: 20.0 mg/kg/injection, schedule: Q01DX009 (ip), vehicle: saline with Tween-80) 106 % of control; (endpoint: mean survival time, dose: 20.0 mg/kg/injection, schedule: Q04DX003 (ip), vehicle: saline with Tween-80) 102 % of control; (endpoint: mean survival time, dose: 40.0 mg/kg/injection, schedule: Q04DX003 (ip), vehicle: saline with Tween-80) 96 % of control; (endpoint: mean survival time, dose: 80.0 mg/kg/injection, schedule: Q04DX003 (ip), vehicle: saline with Tween-80) 94 % of control.
Consider `C=C1C(=O)O[C@H]2C[C@@]3(C)[C@H](O)CCC(=C)[C@@H]3[C@@H](OC(C)=O)[C@H]12`, for which the T/C (endpoint: mean survival time, dose: 75.0 mg/kg/injection, schedule: Q01DX001 (ip), vehicle: saline) was 102 % of control; the T/C (endpoint: mean survival time, dose: 150.0 mg/kg/injection, schedule: Q01DX001 (ip), vehicle: saline) was 106 % of control; the T/C (endpoint: mean survival time, dose: 300.0 mg/kg/injection, schedule: Q01DX001 (ip), vehicle: saline) is 103 % of control.
`NC(Cc1cc([N+](=O)[O-])ccc1CN(CCCl)CCCl)C(=O)O` (stereo unspecified): the T/C runs as follows: (endpoint: mean survival time, dose: 0.25 mg/kg/injection, schedule: Q04DX003 (ip), vehicle: Klucel (hydroxypropylcellulose) (HPC)) 109 % of control; (endpoint: mean survival time, dose: 0.5 mg/kg/injection, schedule: Q04DX003 (ip), vehicle: Klucel (hydroxypropylcellulose) (HPC)) 111 % of control; (endpoint: mean survival time, dose: 0.75 mg/kg/injection, schedule: Q01DX001 (ip), vehicle: Klucel (hydroxypropylcellulose) (HPC)) 103 % of control; (endpoint: mean survival time, dose: 1.0 mg/kg/injection, schedule: Q04DX003 (ip), vehicle: Klucel (hydroxypropylcellulose) (HPC)) 115 % of control; (endpoint: mean survival time, dose: 1.5 mg/kg/injection, schedule: Q01DX001 (ip), vehicle: Klucel (hydroxypropylcellulose) (HPC)) 114 % of control; (endpoint: mean survival time, dose: 3.0 mg/kg/injection, schedule: Q01DX001 (ip), vehicle: Klucel (hydroxypropylcellulose) (HPC)) 123 % of control. For the same molecule, the T/C reads like this: (endpoint: mean survival time, dose: 4.0 mg/kg/injection, schedule: Q01DX009 (ip), vehicle: Klucel (hydroxypropylcellulose) (HPC)) 158 % of control; (endpoint: mean survival time, dose: 8.0 mg/kg/injection, schedule: Q01DX009 (ip), vehicle: Klucel (hydroxypropylcellulose) (HPC)) 123 % of control; (endpoint: median survival time, dose: 0.75 mg/kg/injection, schedule: Q01DX001 (ip), vehicle: Klucel (hydroxypropylcellulose) (HPC)) 115 % of control; (endpoint: median survival time, dose: 1.5 mg/kg/injection, schedule: Q01DX001 (ip), vehicle: Klucel (hydroxypropylcellulose) (HPC)) 111 % of control; (endpoint: median survival time, dose: 1.88 mg/kg/injection, schedule: Q04DX003 (ip), vehicle: Klucel (hydroxypropylcellulose) (HPC)) 362 % of control; (endpoint: median survival time, dose: 3.0 mg/kg/injection, schedule: Q01DX001 (ip), vehicle: Klucel (hydroxypropylcellulose) (HPC)) 119 % of control. Besides, the T/C was 362 % of control (endpoint: median survival time, dose: 3.12 mg/kg/injection, schedule: Q01DX001 (ip), vehicle: Klucel (hydroxypropylcellulose) (HPC)); 114 % of control (endpoint: median survival time, dose: 6.25 mg/kg/injection, schedule: Q01DX001 (ip), vehicle: Klucel (hydroxypropylcellulose) (HPC)); 124 % of control (endpoint: median survival time, dose: 12.5 mg/kg/injection, schedule: Q01DX001 (ip), vehicle: Klucel (hydroxypropylcellulose) (HPC)); 121 % of control (endpoint: median survival time, dose: 25.0 mg/kg/injection, schedule: Q01DX001 (ip), vehicle: Klucel (hydroxypropylcellulose) (HPC)).
Regarding `O=C(O)/C=C/C(=O)NCc1ccccc1`, the T/C is, setting by setting: under setting [5], 104 % of control; under setting [6], 94 % of control; (endpoint: mean survival time, dose: 400.0 mg/kg/injection, schedule: Q01DX009 (ip), vehicle: saline with Tween-80) 98 % of control.
On to `C1CC[N-]CC1.C1CC[N-]CC1.CC(=O)CC(C)=O.CC(=O)CC(C)=O.[Ni+2]`, for which the T/C was 94 % of control (endpoint: mean survival time, dose: 10.0 mg/kg/injection, schedule: Q04DX003 (ip), vehicle: saline); 96 % of control (endpoint: mean survival time, dose: 20.0 mg/kg/injection, schedule: Q04DX003 (ip), vehicle: saline); 104 % of control (endpoint: mean survival time, dose: 40.0 mg/kg/injection, schedule: Q04DX003 (ip), vehicle: saline).
For the molecule `C=C(C)C1CNC(C(=O)O)C1CC(=O)O` (stereo unspecified), the T/C is 97 % of control (endpoint: mean survival time, dose: 6.25 mg/kg/injection, schedule: Q04DX003 (ip), vehicle: saline sonified); 95 % of control (endpoint: mean survival time, dose: 12.5 mg/kg/injection, schedule: Q04DX003 (ip), vehicle: saline sonified); 109 % of control (endpoint: mean survival time, dose: 25.0 mg/kg/injection, schedule: Q04DX003 (ip), vehicle: saline sonified).
`CCOC(=O)C(OCC)P(=O)(OCC)OCC` (stereo unspecified): the T/C (endpoint: mean survival time, dose: 25.0 mg/kg/injection, schedule: Q01DX005 (ip), vehicle: water) was 101 % of control; the T/C (endpoint: mean survival time, dose: 50.0 mg/kg/injection, schedule: Q01DX005 (ip), vehicle: water) is 101 % of control; the T/C (endpoint: mean survival time, dose: 100.0 mg/kg/injection, schedule: Q01DX005 (ip), vehicle: water) is 101 % of control; the T/C (endpoint: mean survival time, dose: 200.0 mg/kg/injection, schedule: Q01DX005 (ip), vehicle: water) is 101 % of control; the T/C (endpoint: mean survival time, dose: 400.0 mg/kg/injection, schedule: Q01DX005 (ip), vehicle: water) is 97 % of control.
